Data reported in patent US10820591B2, “Substituted sulfonyl amides for controlling animal pests” (Bayer Aktiengesellschaft, priority 2016, dated 2020).

Experiments:
Assay type in all cases: in vivo
Boophilus microplus = Boophilus microplus injection test; conditions: 20 μg/animal, after 7 days
Procedure: Boophilus microplus—Injection Test Solvent: dimethyl sulfoxide To produce a suitable active compound preparation, 10 mg of active compound are mixed with 0.5 ml of solvent and the concentrate is diluted to the desired concentration with solvent. 1 μl of the active compound solution is injected into the abdomen of 5 engorged adult female cattle ticks (Boophilus microplus). The animals are transferred into dishes and kept in a climate-controlled room. Efficacy is assessed after 7 days by laying of fertile eggs. Eggs which are not visibly fertile are stored in a climate-controlled cabinet until the larvae hatch after about 42 days. An efficacy of 100% means that none of the ticks has laid any fertile eggs; 0% means that all the eggs are fertile.

Ctenocephalides felis = Ctenocephalides felis oral test; conditions: 100 ppm, after 2 days
Procedure: Ctenocephalides felis—Oral Test Solvent: dimethyl sulfoxide To produce a suitable active compound preparation, 10 mg of active compound are mixed with 0.5 ml of dimethyl sulfoxide. Dilution with citrated cattle blood gives the desired concentration. About 20 unfed adult cat fleas (Ctenocephalides felis) are placed into a chamber which is closed at the top and bottom with gauze. A metal cylinder whose bottom end is closed with parafilm is placed onto the chamber. The cylinder contains the blood/active compound preparation, which can be imbibed by the fleas through the parafilm membrane. After 2 days, the kill in % is determined. 100% means that all of the fleas have been killed; 0% means that none of the fleas have been killed.

Meloidogyne incognita = Meloidogyne incognita test (sand, lettuce, gall formation); conditions: Meloidogyne incognita, 336 h, 20 ppm, after 14 days; read-out: nematicidal efficacy (formation of galls)
Outline: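 Gall counts on lettuce roots were scored after 14 days in sand inoculated with root-knot nematode eggs/larvae plus compound diluted in water. Values run from 0% (galls as in untreated plants) to 100% (gall-free).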

Nezara viridula = Nezara viridula spray test; conditions: 500 g/ha, barley plants, after 4 days
Procedure: Nezara viridula—Spray Test [table] To produce a suitable active compound preparation, 1 part by weight of active compound is dissolved with the specified parts by weight of solvent and made up to the desired concentration with water containing an emulsifier concentration of 1000 ppm. To produce further test concentrations, the formulation is diluted with emulsifier-containing water. Barley plants (Hordeum vulgare) infected with larvae of the Southern green shield bug (Nezara viridula) are sprayed with an active compound preparation of the desired concentration. After 4 days, the efficacy in % is determined. 100% means that all of the shield bugs have been killed; 0% means that none of the shield bugs have been killed.

Nilaparvata lugens = Nilaparvata lugens test; conditions: 500 g/ha, spray, rice plants, after 4 days
Procedure: Nilaparvata lugens Test [table] To produce a suitable active compound preparation, 1 part by weight of active compound is dissolved with the specified parts by weight of solvent and made up to the desired concentration with water containing an emulsifier concentration of 1000 ppm. To produce further test concentrations, the formulation is diluted with emulsifier-containing water. Rice plants (Oryza sativa) are sprayed with the active compound preparation of the desired concentration and then infected with larvae of the brown planthopper (Nilaparvata lugens). After 4 days, the efficacy in % is determined. 100% means that all of the planthoppers have been killed; 0% means that none of the planthoppers have been killed.

Phaedon cochleariae = Phaedon cochleariae spray test; conditions: 500 g/ha, Chinese cabbage leaf discs, after 7 days
Procedure: Phaedon cochleariae—Spray Test
(§1) To produce a suitable active compound preparation, 1 part by weight of active compound is dissolved with the specified parts by weight of solvent and made up to the desired concentration with water containing an emulsifier concentration of 1000 ppm. To produce further test concentrations, the formulation is diluted with emulsifier-containing water.
After 7 days, the efficacy in % is determined. 100% means that all the beetle larvae have been killed; 0% means that no beetle larvae have been killed.

Tetranychus urticae = Tetranychus urticae spray test, OP-resistant; conditions: foliar, 144 h, bean leaf discs, after 6 days, read-out: efficacy
Procedure: Tetranychus urticae—Spray Test, OP-Resistant
as §1
Discs of bean leaves (Phaseolus vulgaris) infested with all stages of the greenhouse red spider mite (Tetranychus urticae) are sprayed with an active compound preparation of the desired concentration.
After 6 days, the efficacy in % is determined. 100% means that all the spider mites have been killed; 0% means that no spider mites have been killed.

Lucilia cuprina = Lucilia cuprina test; conditions: 100 ppm, L1 larvae, after 2 days
Procedure: Lucilia cuprina Test Solvent: dimethyl sulfoxide To produce a suitable active compound preparation, 10 mg of active compound are mixed with 0.5 ml of dimethyl sulfoxide, and the concentrate is diluted with water to the desired concentration. About 20 L1 larvae of the Australian sheep blowfly (Lucilia cuprina) are transferred into a test vessel containing minced horsemeat and the active compound preparation of the desired concentration. After 2 days, the kill in % is determined. 100% means that all the larvae have been killed; 0% means that no larvae have been killed.

Diabrotica balteata = Diabrotica balteata spray test; conditions: 160 μg/well, after 7 days
Procedure: Diabrotica balteata—Spray Test [table] To produce a suitable active compound preparation, 1 part by weight of active compound is dissolved with the specified parts by weight of solvent and made up to the desired concentration with water containing an emulsifier concentration of 1000 ppm. To produce further test concentrations, the formulation is diluted with emulsifier-containing water. Pre-swollen wheat grains (Triticum aestivum) are incubated in a multiwell plate filled with agar and a little water for one day (5 seed grains per cavity). The germinated wheat grains are sprayed with an active compound preparation of the desired concentration. Subsequently, each cavity is infected with 10-20 beetle larvae of Diabrotica balteata. After 7 days, the efficacy in % is determined. 100% means that all maize plants have grown as in the untreated, uninfected control; 0% means that no maize plant has grown.

Aphis gossypii = Aphis gossypii oral test; conditions: 100 ppm, after 5 days
Procedure: Aphis gossypii—Oral Test [table] To produce a suitable active compound preparation, 1 part by weight of active compound is dissolved with the stated parts by weight of solvent and made up to the desired concentration with water. 50 μl of the active compound preparation are transferred into microtitre plates and made up to a final volume of 200 μl with 150 μl of IPL41 insect medium (33%+15% sugar). Subsequently, the plates are sealed with parafilm, which a mixed population of the cotton aphid (Aphis gossypii) within a second microtitre plate is able to puncture and imbibe the solution through it. After 5 days, the efficacy in % is determined. 100% means that all the aphids have been killed; 0% means that no aphids have been killed.

SMILES | efficacy (laying of fertile eggs) (Boophilus microplus) [%] | efficacy (kill in %) (Ctenocephalides felis) [%] | pest or weed control at 20 ppm (Meloidogyne incognita) [%] | efficacy (Nezara viridula) [%] | efficacy (Nilaparvata lugens) [%] | efficacy (Phaedon cochleariae) [%] | pest or weed control at 500 g/ha (Tetranychus urticae) [%] | efficacy (kill in %) (Lucilia cuprina) [%] | efficacy (Diabrotica balteata) [%] | efficacy (Aphis gossypii) [%]
COc1cccc(S(=O)(=O)NC(=O)c2ncn(CCC(F)(F)F)c2Cl)c1 [I-032] | 90 | 70 | 90 | 100 | 100 | 83 | 90 |  |  | 
Cc1cccc(S(=O)(=O)NC(=O)c2ncn(CCC(F)(F)F)c2Cl)c1 [I-035] | 100 |  | 90 | 100 | 100 | 100 |  | 100 |  | 
COc1ccc(Cl)c(S(=O)(=O)NC(=O)c2nc(Cl)n(CCC(F)(F)F)c2Cl)c1 [I-118] |  |  | 100 |  |  |  |  |  | 100 | 
CS(=O)(=O)NC(=O)c1cn(Cc2ccc(C(F)(F)F)c(Cl)c2)cn1 [I-412] |  |  | 100 |  |  |  |  |  |  | 90
